ChEMBL document CHEMBL4033614, “Antineoplastic Agents. 603. Quinstatins: Exceptional Cancer Cell Growth Inhibitors” (2017)
Square brackets hold non-standard residues; d marks the D form. Peptide text beside a SMILES is read from it. * marks the point of attachment. Dolaproine = CO[C@@H]([C@@H]1CCCN1)[C@@H](C)C(=O)O; Dil = CC[C@H](C)[C@H](NC)[C@@H](CC(=O)O)OC; X1 = C[C@@H](N*)[C@@H](O)c1ccccc1; NMeV = CN[C@H](C(=O)O)C(C)C

What was measured:
BXPC-3 [1] = experiment: Growth inhibition of human BxPC3 cells incubated for 48 hrs by MTT assay; assay type: functional; settings: BXPC-3, 48 h
MCF7 = experiment: Growth inhibition of human MCF7 cells incubated for 48 hrs by sulforhodamine B assay; settings: MCF7, 48 h
SF-268 = experiment: Growth inhibition of human SF268 cells incubated for 48 hrs by sulforhodamine B assay; settings: SF-268, 48 h
DU-145 = experiment: Growth inhibition of human DU145 cells incubated for 48 hrs by sulforhodamine B assay; settings: DU-145, 48 h
KM-20L2 = experiment: Growth inhibition of human KM20L2 cells incubated for 48 hrs by sulforhodamine B assay; settings: KM-20L2, 48 h
NCI-H460 = experiment: Growth inhibition of human NCI-H460 cells incubated for 48 hrs by sulforhodamine B assay; settings: NCI-H460, 48 h
BXPC-3 [2] = experiment: Growth inhibition of human BxPC3 cells incubated for 48 hrs by sulforhodamine B assay; settings: BXPC-3, 48 h

| SMILES | GI50 (BXPC-3 [1]) [nM] | GI50 (MCF7) [nM] | GI50 (DU-145) [nM] | GI50 (NCI-H460) [nM] | GI50 (BXPC-3 [2]) [nM] | GI50 (SF-268) [nM] | GI50 (KM-20L2) [nM] |
| --- | --- | --- | --- | --- | --- | --- | --- |
| CC[C@H](C)[C@@H]([C@@H](CC(=O)N1CCC[C@H]1[C@H](OC)[C@@H](C)C(=O)NCCc1ccc2ncccc2c1)OC)N(C)C(=O)[C@@H](NC(=O)[C@H](C(C)C)N(C)C)C(C)C | 2.66 | 0.532 | 0.399 | 5.71 |  | 0.399 | 0.518 |
| CC[C@H](C)[C@@H]([C@@H](CC(=O)N1CCC[C@H]1[C@H](OC)[C@@H](C)C(=O)N[C@H](C)[C@@H](O)c1ccccc1)OC)N(C)C(=O)[C@@H](NC(=O)[C@H](C(C)C)N(C)C)C(C)C | > 1.37 | 0.232 | 0.424 | 0.533 |  | 0.492 | 0.492 |
| CC[C@H](C)[C@@H]([C@@H](CC(=O)N1CCC[C@H]1[C@H](OC)[C@@H](C)C(=O)NCCc1ccc2ccccc2n1)OC)N(C)C(=O)[C@@H](NC(=O)[C@H](C(C)C)N(C)C)C(C)C | 12.4 | 0.412 | 0.412 | 6.77 |  | 0.31 | 0.438 |
| CC[C@H](C)[C@@H]([C@@H](CC(=O)N1CCC[C@H]1[C@H](OC)[C@@H](C)C(=O)NCCc1ccnc2ccccc12)OC)N(C)C(=O)[C@@H](NC(=O)[C@H](C(C)C)N(C)C)C(C)C | 5.84 | 0.398 | 0.305 | 5.71 |  | 0.252 | 0.425 |
| CC[C@H](C)[C@@H]([C@@H](CC(=O)N1CCC[C@H]1[C@H](OC)[C@@H](C)C(=O)N[C@H](C)[C@@H](O)c1ccccc1)OC)N(C)C(=O)[C@@H](NC(=O)[C@@H](NC)C(C)C)C(C)C (H-[NMeV]V[Dil][Dolaproine]-X1) | > 1.39 | 0.404 | 0.418 | 0.683 |  | 0.432 | 0.599 |

Continued, in another order:

| GI50 (BXPC-3 [1]) [nM] | GI50 (MCF7) [nM] | GI50 (DU-145) [nM] | GI50 (NCI-H460) [nM] | GI50 (BXPC-3 [2]) [nM] | SMILES | GI50 (SF-268) [nM] | GI50 (KM-20L2) [nM] |
| --- | --- | --- | --- | --- | --- | --- | --- |
| 27.9 | 0.305 | 0.266 | 41.2 |  | CC[C@H](C)[C@@H]([C@@H](CC(=O)N1CCC[C@H]1[C@H](OC)[C@@H](C)C(=O)NCCc1cnc2ccccc2c1)OC)N(C)C(=O)[C@@H](NC(=O)[C@H](C(C)C)N(C)C)C(C)C | 0.385 | 0.532 |
| 2.79 | 0.097 | 0.172 | 6.37 |  | CC[C@H](C)[C@@H]([C@@H](CC(=O)N1CCC[C@H]1[C@H](OC)[C@@H](C)C(=O)NCCc1cccc2ncccc12)OC)N(C)C(=O)[C@@H](NC(=O)[C@H](C(C)C)N(C)C)C(C)C | 0.146 | 0.305 |
| 4.12 | 0.039 | 0.04 | 14.6 |  | CC[C@H](C)[C@@H]([C@@H](CC(=O)N1CCC[C@H]1[C@H](OC)[C@@H](C)C(=O)NCCc1ccc2cccnc2c1)OC)N(C)C(=O)[C@@H](NC(=O)[C@H](C(C)C)N(C)C)C(C)C | 0.032 | 0.054 |
|  | 0.053 | 0.053 | 1.19 | 0.425 | CC[C@H](C)[C@@H]([C@@H](CC(=O)N1CCC[C@H]1[C@H](OC)[C@@H](C)C(=O)NCCc1cccc2cccnc12)OC)N(C)C(=O)[C@@H](NC(=O)[C@H](C(C)C)N(C)C)C(C)C | 0.03 | 0.053 |
